According to US6426330B1, “Satiety inducing composition comprising Neuropeptide Y analogues and methods of inducing satiety and treating a disease or condition associated with it” (East Carolina University, priority 1995, dated 2002):
Square brackets hold non-standard residues; d marks the D form. Ends that are not written are not given here.

System: normotensive Sprague-Dawsley rats
Assay: In vivo activity: blood pressure and heart rate after intravenous dosing in catheterised rats
Set-up: species or system rat
Description: Male Sprague-Dawley rats obtained from Charles River Laboratories, Wilmington, Mass., and weighing 276-300 g, were group housed at 22° C. and kept on 12 hour light/dark cycle. Food and water were provided ad lib.
Animals were anesthetized with sodium pentobarbital (65 mg/kg) and under sterile conditions a one-inch incision was made in the fold of the left leg to expose the femoral blood vessels. Two lengths of PE-50 tubing filled with 10% heparin were inserted into the left femoral artery and left femoral vein for measurement of blood pressure and for drug delivery, respectively. The tubings were tunneled under the skin and exposed through the mid-scapular region. Animals were allowed at least 24 hours recovery prior to experiments.
A force transducer (Spectramed Model P23XL, Grass Instruments, Quincy, Mass., USA), and tachograph (Model 7P44D, Grass Instruments) was used for recording of systolic and diastolic pressures and heart rate from the femoral artery catheter. Patency of catheters was verified by flushing with either saline or 10% heparin.
A dose of either 30, 100, 500, 800 or 1000 nM/kg ([…]) of NPY27-36 (D-Tyr^27,36, D-Thr^32) (prepared as described in Example 1 above), or saline was delivered to the animal via the catheter in the left femoral vein. Changes in systolic and diastolic pressures and heart rater were recorded from the catheter in the left femoral artery over a 10 minute time interval.

[1] = given intraveneously, doses 30-1000 nM/kg, recorded over 10 minutes, normotensive rats

[dY]INLI[dT]RQR[dY]-NH2 [NPY27-36 (D-Tyr^27,36, D-Thr^32)]
changes in mean arterial pressure and heart rate vs saline (dose 30 nM/kg i.v.): failed to produce changes that were significantly different from saline treatment
changes in mean arterial pressure and heart rate vs saline (dose 100 nM/kg i.v.): failed to produce changes that were significantly different from saline treatment
mean arterial pressure vs saline-treated controls (dose 500 nM/Kg i.v.): significantly different decreases
heart rate vs saline controls (dose 500 nM/kg i.v.): significantly different increases
mean arterial pressure vs saline-treated controls (dose 800 nM/Kg i.v.): significantly different decreases
mean arterial pressure vs saline-treated controls (dose 1000 nM/Kg i.v.): significantly different decreases
heart rate vs saline controls (dose 1000 nM/kg i.v.): significantly different increases
heart rate [1]: increase
mean arterial pressure [1]: dose-dependent decrease
